Test results: patent publication US10618944B2, “Tumor suppressor SALL1 as a therapeutic agent for treating cancer” (Saint Louis University, priority 2015, dated 2020)

What was measured:
[1] = tested on: MCF-7; assay: Senescence associated β-Galactosidase (SA-β-Gal) staining; type: cell-based, human; settings: for SALL1-induced senescent cell populations with MAPK inhibitor: 10 μM for 5 days, SALL1-transfected cells
Experimental: (§1) Senescence associated β-Galactosidase (SA-β-Gal) activity in tumor cells was detected as previously described (30, 33). Briefly, tumor cell lines were transfected with or without plasmids and cultured for 3 or 5 days. Cells were washed in PBS (pH 7.2), fixed in 3% formaldehyde, and followed to incubate overnight at 37° C. with freshly prepared SA-β-Gal staining solution (1 mg/ml X-gal, 5 mM K3Fe[CN]6, 5 mM K4Fe[CN]6, 2 mM MgCl2 in PBS at pH 6.0). The stained cells were washed with H2O and examined with a microscope. For some experiments, SA-β-Gal^+ populations were determined in the transfected tumor cells in the presence of following various inhibitors or combined transfection with shRNAs: ATM inhibitor KU55933 (20 μM, Tocris Bioscience); mTOR inhibitor Rapmycin (5 μM, Sigma); MAPK inhibitors U0126 (10 μM), SB203580 (10 μM) and SP600125 (10 μM), or PI3 Kinase inhibitor Wortminnin (10 μM) (Calbiochemistry), or transfection with shRNAs against p38, ERK and mTOR, for 3 or 5 days. The treated tumor cells were then detected for SA-β-Gal expression.
(§2) The methods for design and construction of shRNA specific for ERK1, ERK2, P38a, JNK1 and mTOR or scrambled lenti-shRNAs, and generation of recombinant lentivirus carrying GFP and shRNA, have been described previously (Peng et al., 2005 and Peng et al., 2007). For virus transfection, concentrated lentiviral supernatant with a multiplicity of infection (MOI) of 5-10 in a total volume of 0.5 ml culture medium was added to the tumor cells growing in 24 well plates containing 8 μg/ml polybrene (Sigma), and then centrifuged at 1000×g for 1 hr at room temperature. Tumor cells were sorted into GFP^+ and GFP^− cells with a FACS ARIA sorter at 3 or 4 days post-transfection. The sorted cells (GFP^+ and GFP^−) were then transfected with or without pcDNA3.1-SALL-1, and induction of senescence was determined.

[2] = tested on: E0771; assay: as above; type: cell-based, murine; settings: for SALL1-induced senescent cell populations with MAPK inhibitor: 10 μM for 5 days, SALL1-transfected cells
Experimental: as §1, §2

[3] = tested on: ATM-associated DNA damage response in MCF-7; assay: DNA damage response markers by FACS; type: cell-based, human; settings: KU55933 20 μM
Experimental: (§3) The expression of DNA damage response markers on tumor cells were determined by FACS analysis after staining with anti-human specific antibodies conjugated with either PE or FITC. These human antibodies included: anti-phosphorylated H2Ax, anti-phosphorylated p53 bp, and anti-phosphorylated ATM, which were purchased from Cell Signaling Technology or BD Biosciences. All stained cells were analyzed on a FACSCalibur flow cytometer (BD Bioscience) and data analyzed with FlowJo software (Tree Star).

[4] = tested on: ATM-associated DNA damage response in E0771; assay: DNA damage response markers by FACS; type: cell-based, murine; settings: KU55933 20 μM
Experimental: as §3

[5] = pretreated 20 μM for 1 day, then SALL1 transfection, 3 days

| SALL1-induced senescence induction with ATM inhibitor [1, 5] | SALL1-induced senescence induction with ATM inhibitor [2, 5] | Structure (SMILES) | SALL1-induced senescent cell populations with MAPK inhibitor [1] | SALL1-induced senescent cell populations with MAPK inhibitor [2] | phosphorylation of ATM in SALL1-transfected tumor cells with inhibitor [3] | phosphorylation of ATM in SALL1-transfected tumor cells with inhibitor [4] |
| --- | --- | --- | --- | --- | --- | --- |
| – | – | C[S+]([O-])c1ccc(-c2nc(-c3ccncc3)c(-c3ccc(F)cc3)[nH]2)cc1 (centres unmarked) [SB203580] | significantly reduced | significantly reduced | – | – |
| prevented the senescence induction | prevented the senescence induction | O=c1cc(-c2cccc3c2Sc2ccccc2S3)oc(N2CCOCC2)c1 [KU55933] | – | – | dramatically suppressed | dramatically suppressed |
| – | – | N#CC(=C(/N)Sc1ccccc1N)/C(C#N)=C(\N)Sc1ccccc1N [U0126] | significantly reduced | significantly reduced | – | – |
